What was measured:
JAK2/TYK2 = JAK2/TYK2 (Homo sapiens, UniProt O60674+P29597); assay: Inhibition of TYK2/JAK2 in IL23-stimulated human Kit225 cells by steady-glo luciferase assay
JAK1/TYK2 = JAK1/TYK2 (Homo sapiens, UniProt P23458+P29597); assay: Inhibition of TYK2/JAK1 in IFNalpha-stimulated human Kit225 cells by steady-glo luciferase assay
[1] = molecular target: T1, Non-receptor tyrosine-protein kinase TYK2 (Homo sapiens, UniProt P29597); assay: Inhibition of TYK2 JH2 domain in human whole blood assessed as inhibition of IFNalpha-induced STAT5 phosphorylation preincubated for 1 hr followed by IFNalpha stimulation and measured after 15 mins by fluorescence assay; format: tissue-based
[2] = molecular target: Mast/stem cell growth factor receptor Kit (Homo sapiens, UniProt P10721); assay: Inhibition of cKIT (unknown origin)
[3] = molecular target: T1, Non-receptor tyrosine-protein kinase TYK2; assay: Inhibition of fluorescein-labeled kinase tracer binding to His-TVMV-fused TYK2 JH2 domain (575 to 869 residues) (unknown origin) measured after 90 mins by HTRF assay
[4] = molecular target: T1, Non-receptor tyrosine-protein kinase TYK2; assay: Inhibition of TYK2 JH1 domain (unknown origin)
[5] = molecular target: Tyrosine-protein kinase JAK1 (Homo sapiens, UniProt P23458); assay: Inhibition of JAK1 JH1 domain (unknown origin)
[6] = molecular target: Tyrosine-protein kinase JAK2 (Homo sapiens, UniProt O60674); assay: Inhibition of JAK2 JH1 domain (unknown origin)
JAK3/JAK1 = JAK3/JAK1 (Homo sapiens, UniProt P23458+P52333); assay: Inhibition of JAK1/JAK3 (unknown origin) in IL-2 stimulated cells by cell based assay
JAK2/JAK1 = JAK2/JAK1 (Homo sapiens, UniProt O60674+P23458); assay: Inhibition of JAK1/JAK2 (unknown origin) in GM-CSF stimulated cells by cell based assay
[7] = Metabolic stability in human liver microsomes assessed as parent compound remaining after 10 mins; format: ADME, Microsome; details: read-out: Stability
[8] = Metabolic stability in rat liver microsomes assessed as parent compound remaining after 10 mins; format: ADME, Microsome; details: read-out: Stability
[9] = Metabolic stability in mouse liver microsomes assessed as parent compound remaining after 10 mins; format: ADME, Microsome; details: read-out: Stability
[10] = molecular target: Non-receptor tyrosine-protein kinase TYK2 (Mus musculus, UniProt Q9R117); assay: Inhibition of TYK2 JH2 domain in mouse whole blood assessed as inhibition of IFNalpha-induced STAT1 phosphorylation preincubated for 1 hr followed by IFNalpha stimulation and measured after 15 mins by fluorescence assay; format: tissue-based
[11] = molecular target: 3',5'-cyclic-AMP phosphodiesterase 4D (Homo sapiens, UniProt Q08499); assay: Inhibition of [3H]cAMP binding to recombinant human His-Tb fused PDE4D2 (86 to 413 residues) expressed in Escherichia coli using [3H]cAMP as substrate preincubated for 10 mins followed by [3H]cAMP addition and measured after 1 hr by scintillation proximity assay
[12] = Permeability across apical to basolateral side in human Caco2 cells; format: ADME, cell-based; details: Caco-2, read-out: permeability
[13] = Efflux ratio of permeability in human Caco2; format: ADME, cell-based; details: Caco-2
[14] = molecular target: Voltage-gated inwardly rectifying potassium channel KCNH2 (Homo sapiens, UniProt Q12809); assay: Inhibition of human ERG by fluorescence polarization assay

Chain of Mast/stem cell growth factor receptor Kit (P10721 whole entry, the tested form may be a part): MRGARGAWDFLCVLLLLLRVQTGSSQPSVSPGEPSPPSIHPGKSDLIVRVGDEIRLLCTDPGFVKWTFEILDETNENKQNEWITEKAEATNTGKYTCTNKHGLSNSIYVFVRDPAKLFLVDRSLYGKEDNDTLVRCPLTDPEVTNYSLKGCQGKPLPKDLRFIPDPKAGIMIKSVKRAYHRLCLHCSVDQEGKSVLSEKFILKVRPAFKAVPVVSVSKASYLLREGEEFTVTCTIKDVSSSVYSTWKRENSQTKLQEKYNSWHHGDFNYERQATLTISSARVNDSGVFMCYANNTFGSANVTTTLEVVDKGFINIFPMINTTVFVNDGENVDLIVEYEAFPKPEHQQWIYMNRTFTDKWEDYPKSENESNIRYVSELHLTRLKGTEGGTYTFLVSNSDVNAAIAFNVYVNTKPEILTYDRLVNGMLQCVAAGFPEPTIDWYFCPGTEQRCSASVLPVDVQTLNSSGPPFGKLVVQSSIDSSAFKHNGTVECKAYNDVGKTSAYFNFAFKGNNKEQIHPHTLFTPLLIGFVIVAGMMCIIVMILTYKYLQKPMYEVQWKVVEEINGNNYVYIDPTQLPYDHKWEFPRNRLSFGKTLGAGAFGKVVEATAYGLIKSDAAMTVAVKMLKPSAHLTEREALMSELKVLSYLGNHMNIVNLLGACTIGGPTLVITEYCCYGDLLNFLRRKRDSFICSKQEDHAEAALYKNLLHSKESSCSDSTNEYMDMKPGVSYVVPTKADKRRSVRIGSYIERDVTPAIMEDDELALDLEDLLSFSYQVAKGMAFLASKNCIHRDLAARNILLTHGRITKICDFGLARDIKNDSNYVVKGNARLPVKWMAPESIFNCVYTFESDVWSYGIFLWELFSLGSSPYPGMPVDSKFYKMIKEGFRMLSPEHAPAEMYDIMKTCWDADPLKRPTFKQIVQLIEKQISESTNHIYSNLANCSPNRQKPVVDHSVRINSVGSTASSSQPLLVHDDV
Chain of Tyrosine-protein kinase JAK2 (O60674 whole entry, the tested form may be a part): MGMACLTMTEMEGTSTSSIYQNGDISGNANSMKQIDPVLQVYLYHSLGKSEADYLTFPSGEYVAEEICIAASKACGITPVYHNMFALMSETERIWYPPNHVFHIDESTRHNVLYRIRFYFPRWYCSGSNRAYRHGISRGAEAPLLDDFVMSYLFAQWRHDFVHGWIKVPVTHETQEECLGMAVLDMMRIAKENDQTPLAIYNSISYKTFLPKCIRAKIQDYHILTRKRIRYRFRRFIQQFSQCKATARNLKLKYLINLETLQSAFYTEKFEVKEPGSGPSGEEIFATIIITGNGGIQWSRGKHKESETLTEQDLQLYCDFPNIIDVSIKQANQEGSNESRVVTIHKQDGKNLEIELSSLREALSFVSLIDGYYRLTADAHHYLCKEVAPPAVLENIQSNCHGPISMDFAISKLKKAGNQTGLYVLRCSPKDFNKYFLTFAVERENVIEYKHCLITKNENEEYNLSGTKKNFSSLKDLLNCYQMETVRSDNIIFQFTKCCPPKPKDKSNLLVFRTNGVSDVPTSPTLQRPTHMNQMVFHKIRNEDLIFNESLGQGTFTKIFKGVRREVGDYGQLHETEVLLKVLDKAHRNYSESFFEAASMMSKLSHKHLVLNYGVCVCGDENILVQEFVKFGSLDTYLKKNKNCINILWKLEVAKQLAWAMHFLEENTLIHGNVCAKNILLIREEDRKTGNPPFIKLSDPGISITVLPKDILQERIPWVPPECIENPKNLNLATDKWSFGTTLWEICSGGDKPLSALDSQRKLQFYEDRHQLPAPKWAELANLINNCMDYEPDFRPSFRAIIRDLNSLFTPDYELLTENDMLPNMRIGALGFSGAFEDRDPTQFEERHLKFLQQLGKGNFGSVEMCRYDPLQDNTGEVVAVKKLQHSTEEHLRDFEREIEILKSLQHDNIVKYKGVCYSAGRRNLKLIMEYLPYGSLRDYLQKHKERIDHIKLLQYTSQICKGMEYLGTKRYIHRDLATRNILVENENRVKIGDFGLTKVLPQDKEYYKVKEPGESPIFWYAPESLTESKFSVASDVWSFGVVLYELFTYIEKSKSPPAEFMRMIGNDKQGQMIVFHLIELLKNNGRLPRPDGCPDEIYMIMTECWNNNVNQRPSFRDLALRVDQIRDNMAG
Chain of JAK2/TYK2 (O60674 whole entry): as the sequence (O60674 whole entry, the tested form may be a part) above
Chain of JAK2/TYK2 (P29597 whole entry): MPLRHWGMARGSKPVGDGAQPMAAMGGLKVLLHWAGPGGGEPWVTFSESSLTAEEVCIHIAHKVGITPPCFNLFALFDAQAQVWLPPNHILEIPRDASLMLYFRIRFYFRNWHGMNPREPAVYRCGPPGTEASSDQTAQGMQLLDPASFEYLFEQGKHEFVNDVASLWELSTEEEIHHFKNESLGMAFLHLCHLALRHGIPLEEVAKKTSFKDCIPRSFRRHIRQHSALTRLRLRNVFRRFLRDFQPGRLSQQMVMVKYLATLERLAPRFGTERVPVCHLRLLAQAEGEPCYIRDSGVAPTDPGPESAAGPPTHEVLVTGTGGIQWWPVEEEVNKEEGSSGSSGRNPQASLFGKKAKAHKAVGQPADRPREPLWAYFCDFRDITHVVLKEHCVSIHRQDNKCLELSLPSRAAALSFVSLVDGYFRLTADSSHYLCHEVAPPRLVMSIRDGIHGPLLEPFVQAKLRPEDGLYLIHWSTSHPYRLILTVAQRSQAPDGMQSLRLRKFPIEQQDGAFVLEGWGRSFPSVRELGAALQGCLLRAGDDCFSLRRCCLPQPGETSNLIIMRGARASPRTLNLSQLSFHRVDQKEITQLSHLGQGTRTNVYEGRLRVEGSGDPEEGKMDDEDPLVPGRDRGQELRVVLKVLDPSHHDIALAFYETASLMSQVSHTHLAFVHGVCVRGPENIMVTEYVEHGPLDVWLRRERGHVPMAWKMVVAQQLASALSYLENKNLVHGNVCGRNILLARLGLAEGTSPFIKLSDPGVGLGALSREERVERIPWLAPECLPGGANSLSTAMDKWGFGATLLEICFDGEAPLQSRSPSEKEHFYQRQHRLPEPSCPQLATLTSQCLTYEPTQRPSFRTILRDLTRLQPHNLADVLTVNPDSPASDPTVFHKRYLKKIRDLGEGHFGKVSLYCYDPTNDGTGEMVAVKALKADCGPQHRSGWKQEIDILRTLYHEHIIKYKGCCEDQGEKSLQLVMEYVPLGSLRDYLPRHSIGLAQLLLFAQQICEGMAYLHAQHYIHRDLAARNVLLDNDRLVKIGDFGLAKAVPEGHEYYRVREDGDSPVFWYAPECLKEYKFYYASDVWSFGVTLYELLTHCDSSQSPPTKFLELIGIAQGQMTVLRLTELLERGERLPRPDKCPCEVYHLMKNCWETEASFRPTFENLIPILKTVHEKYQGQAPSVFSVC
Chain of JAK1/TYK2 (P23458 whole entry, the tested form may be a part): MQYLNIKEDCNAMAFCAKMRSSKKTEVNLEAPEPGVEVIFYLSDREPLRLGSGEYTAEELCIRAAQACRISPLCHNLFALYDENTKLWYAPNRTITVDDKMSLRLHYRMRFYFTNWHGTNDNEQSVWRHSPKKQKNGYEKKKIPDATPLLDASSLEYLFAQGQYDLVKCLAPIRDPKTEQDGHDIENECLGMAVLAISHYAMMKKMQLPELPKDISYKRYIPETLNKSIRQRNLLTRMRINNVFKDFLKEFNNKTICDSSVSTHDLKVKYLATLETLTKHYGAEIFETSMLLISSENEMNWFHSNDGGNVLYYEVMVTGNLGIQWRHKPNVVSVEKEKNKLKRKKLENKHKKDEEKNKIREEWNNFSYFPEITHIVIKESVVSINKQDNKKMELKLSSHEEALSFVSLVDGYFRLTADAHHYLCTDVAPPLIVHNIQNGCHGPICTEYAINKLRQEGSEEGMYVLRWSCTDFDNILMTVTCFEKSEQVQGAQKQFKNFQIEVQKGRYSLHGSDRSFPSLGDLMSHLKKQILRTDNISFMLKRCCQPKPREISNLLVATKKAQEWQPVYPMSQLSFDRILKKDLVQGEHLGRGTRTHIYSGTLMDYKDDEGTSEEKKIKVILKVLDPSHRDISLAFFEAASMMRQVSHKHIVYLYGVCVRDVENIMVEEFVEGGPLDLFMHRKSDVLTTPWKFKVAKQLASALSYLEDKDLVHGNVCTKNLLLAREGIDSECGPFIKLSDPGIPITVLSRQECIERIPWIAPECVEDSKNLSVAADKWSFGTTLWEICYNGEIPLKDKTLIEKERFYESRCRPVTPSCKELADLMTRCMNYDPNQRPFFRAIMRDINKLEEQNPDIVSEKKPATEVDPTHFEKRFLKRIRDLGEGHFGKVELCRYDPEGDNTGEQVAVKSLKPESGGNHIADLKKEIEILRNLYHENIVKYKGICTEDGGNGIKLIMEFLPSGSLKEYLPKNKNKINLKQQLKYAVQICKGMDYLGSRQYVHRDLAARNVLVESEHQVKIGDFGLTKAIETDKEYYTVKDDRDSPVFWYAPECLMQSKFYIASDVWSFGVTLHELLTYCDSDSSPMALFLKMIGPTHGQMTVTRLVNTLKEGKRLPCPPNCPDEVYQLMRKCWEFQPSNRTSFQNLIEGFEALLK
Chain of JAK1/TYK2 (P29597 whole entry, the tested form may be a part): as the sequence (P29597 whole entry) above
Chain of JAK2/JAK1 (P23458 whole entry): as the sequence (P23458 whole entry, the tested form may be a part) above
Chain of JAK2/JAK1 (O60674 whole entry): as the sequence (O60674 whole entry, the tested form may be a part) above
Chain of Tyrosine-protein kinase JAK1 (P23458 whole entry, the tested form may be a part): as the sequence (P23458 whole entry, the tested form may be a part) above
T1 sequence (P29597 whole entry, the tested form may be a part): as the sequence (P29597 whole entry) above

Row | SMILES | IC50 (JAK2/TYK2) [nM] | IC50 (JAK1/TYK2) [nM] | IC50 [1] [nM] | IC50 [2] [nM] | IC50 [3] [nM] | IC50 [4] [nM] | IC50 [5] [nM] | IC50 [6] [nM] | IC50 (JAK3/JAK1) [nM] | IC50 (JAK2/JAK1) [nM] | remaining at 10 min [7] [%] | remaining at 10 min [8] [%] | remaining at 10 min [9] [%] | IC50 [10] [nM] | IC50 [11] [nM] | Papp A→B [12] [×10⁻⁶ cm/s] | efflux ratio [13] | IC50 [14] [nM]
1 | CCCC(=O)Nc1cc(Nc2ccccc2S(C)(=O)=O)c(C(=O)NC)cn1 | 2000 | 2700 | 2500 | > 2000 | – | – | – | – | – | – | – | – | – | – | – | – | – | –
2 | CS(=O)(=O)c1ccccc1Nc1cc(Nc2ccc(F)cn2)ncc1C(N)=O | 46 | 35 | 33 | – | 0.32 | 42 | 43 | 18 | 960 | 260 | 77 | 3 | 80 | 83 | – | – | – | –
3 | CNC(=O)c1cnc(Nc2ccc(F)cn2)cc1Nc1ccccc1OC | 310 | 510 | 3300 | – | 5.2 | – | – | – | – | – | 52 | 28 | 35 | – | 9200 | 26.7 | 0.4 | –
4 | CNC(=O)c1cnc(NC(=O)C(C)C)cc1Nc1ccccc1S(C)(=O)=O | 1100 | 4400 | 5200 | > 2000 | – | – | – | – | – | – | – | – | – | – | – | – | – | –
5 | CNC(=O)c1cnc(Nc2ncccn2)cc1Nc1ccccc1C(N)=O | > 12500 | > 12500 | – | – | 60 | – | – | – | – | – | – | – | – | – | – | – | – | –
6 | CN(C)C(=O)c1cnc(Nc2ccc(F)cn2)cc1Nc1ccccc1C(N)=O | 11000 | 12000 | – | – | 87 | > 2000 | > 2000 | > 2000 | > 12500 | > 12500 | – | – | – | – | – | – | – | –
7 | CNC(=O)c1cnc(Nc2ccccn2)cc1Nc1ccccc1C(N)=O | 280 | 310 | – | – | 1.6 | – | – | – | – | – | – | – | – | – | – | – | – | –
8 | CNC(=O)c1cnc(Nc2ccc(F)cn2)cc1Nc1ccccc1 | 5600 | 5200 | > 10000 | – | 11 | – | – | – | – | – | 51 | 65 | 37 | – | 4500 | 29.3 | 0.5 | –
9 | CNC(=O)c1cnc(Nc2ccccc2)cc1Nc1ccccc1C(N)=O | 6900 | 7600 | – | – | 33 | – | – | – | – | – | – | – | – | – | – | – | – | –
10 | NC(=O)c1ccccc1Nc1cc(Nc2ccc(F)cn2)ncc1C(=O)NC1CC1 | 3300 | 5600 | – | – | 33 | > 2000 | > 2000 | > 2000 | > 12500 | > 12500 | – | – | – | – | – | – | – | –
11 | CNC(=O)c1cnc(Nc2ccc(OC)cn2)cc1Nc1ccccc1S(C)(=O)=O | – | – | – | 830 | – | – | – | – | – | – | – | – | – | – | – | 2.9 | – | –
12 | CNC(=O)c1cnc(Nc2ccc(C)nn2)cc1Nc1ccccc1S(C)(=O)=O | 490 | 320 | 630 | > 2000 | – | – | – | – | – | – | – | – | – | – | – | < 1.5 | > 12 | 43000
13 | CCNC(=O)c1cnc(Nc2ccc(F)cn2)cc1Nc1ccccc1C(N)=O | 4100 | 2500 | – | – | 13 | > 2000 | > 2000 | > 2000 | > 12500 | > 12500 | – | – | – | – | – | – | – | –
14 | CNC(=O)c1cnc(Nc2ccc(F)cn2)cc1Nc1ccccc1SC | 330 | 240 | 3100 | – | 1.8 | – | – | – | – | – | 36 | 9 | 30 | – | 4400 | 7.9 | 0.5 | –
15 | CNC(=O)c1cnc(Nc2cc(C)ccn2)cc1Nc1ccccc1S(C)(=O)=O | 27 | 21 | 190 | > 2000 | – | – | – | – | – | – | – | – | – | – | – | 6.5 | 9 | 16000
16 | CNC(=O)c1cnc(Nc2ncccc2F)cc1Nc1ccccc1C(N)=O | 1300 | 1800 | – | – | 5.9 | – | – | – | – | – | – | – | – | – | – | – | – | –
17 | CCS(=O)(=O)c1ccccc1Nc1cc(Nc2ccc(F)cn2)ncc1C(=O)NC | 1900 | 1000 | 4400 | – | 8 | – | – | – | – | – | 91 | 76 | 43 | – | 4600 | 5.3 | 6 | –

— ChEMBL document CHEMBL4414548 (J Med Chem, 2019)
